The values below come from patent US11117891B2, “Isoquinolin and naphthydrin compounds” (Eli Lilly and Company, priority 2017, dated 2021).

For experiment [1], the target named is recombinant human ASK1 (hASK1) catalytic domain (Homo sapiens (Human), UniProt Q99683). Kind of experiment: ASK1 enzymatic assay (ADP-Glo Kinase Assay). In kind it is biochemical. To be noted: for IC50: ADP production, MKK6 300 nM substrate, ATP 100 uM, mean ± standard deviation; for Efficacy (%): hASK1 enzymatic assay, relative to standard inhibitor (100%) and DMSO vehicle (0%). An excerpt: The purpose of this assay is to determine the effect of ASK1 inhibitors on the production of ADP by ASK1. The recombinant human ASK1 (hASK1) catalytic domain tagged with Glutathione S-transferase is used, and histidine-tagged full-length human MAP kinase kinase 6 (MKK6) and ATP are the substrate and cofactor, respectively.
The assay is done using an ADP-Glo™ Kinase Assay Kit (Promega, Catalog #V9102) according to the manufacturer's protocol with the following modifications. Briefly, hASK1 (0.25 nM) and MKK6 (300 nM) in a buffer (10 mM MOPS pH 7.0; 10 mM Mg-Acetate; 1 mM DTT; 0.025% NP-40; 0.05% BSA; 1.5% glycerol) are incubated with ASK1 inhibitors at varying concentrations ranging from 10.00 uM to 0.17 nM for 15 minutes, followed by incubation with ATP (100 uM) for 30 minutes at room temperature. ADP-Glo™ Reagent is added to terminate the kinase reaction and deplete the remaining ATP. The Kinase Detection Reagent is then added to convert ADP to ATP. The newly synthesized ATP is measured using a luciferase/luciferin reaction, and the luminescence determined by Envision (PerkinElmer). The luminescence intensities are analyzed by GeneData, and fit to a 4 parameter dose response-inhibitor logistics curve to determine IC50 values, using the effects of 5-(4-cyclopropyl-1H-imidazol-1-yl)-2-fluoro-4-methyl-N-{6-[4-(propan-2-yl)-4H-1,2,4-triazol-3-yl]pyridin-2-yl}benzamide as a standard and DMSO vehicle for 100% and 0% inhibition, respectively.
For orientation: In ADP-Glo the light output rises with the ADP produced.

The target of a further experiment is human ASK1 (Homo sapiens (Human), UniProt Q99683). Put plainly: ASK1 autophosphorylation (Thr838) assay in HEK293 cells overexpressing human ASK1. In kind it is cell-based. To be noted: for IC50: H2O2-stimulated (1 mM, 10 min) ASK1 autophosphorylation at Thr838, HEK293 cells, HTRF, mean ± standard deviation, read-out: HEK pASK1 IC50; for Efficacy (%): HEK pASK1 assay, relative to standard inhibitor (100%) and DMSO vehicle (0%). A general note: In TR-FRET formats the signal depends on donor and acceptor labels being close together.
Sequence of human ASK1 (Q99683 whole entry): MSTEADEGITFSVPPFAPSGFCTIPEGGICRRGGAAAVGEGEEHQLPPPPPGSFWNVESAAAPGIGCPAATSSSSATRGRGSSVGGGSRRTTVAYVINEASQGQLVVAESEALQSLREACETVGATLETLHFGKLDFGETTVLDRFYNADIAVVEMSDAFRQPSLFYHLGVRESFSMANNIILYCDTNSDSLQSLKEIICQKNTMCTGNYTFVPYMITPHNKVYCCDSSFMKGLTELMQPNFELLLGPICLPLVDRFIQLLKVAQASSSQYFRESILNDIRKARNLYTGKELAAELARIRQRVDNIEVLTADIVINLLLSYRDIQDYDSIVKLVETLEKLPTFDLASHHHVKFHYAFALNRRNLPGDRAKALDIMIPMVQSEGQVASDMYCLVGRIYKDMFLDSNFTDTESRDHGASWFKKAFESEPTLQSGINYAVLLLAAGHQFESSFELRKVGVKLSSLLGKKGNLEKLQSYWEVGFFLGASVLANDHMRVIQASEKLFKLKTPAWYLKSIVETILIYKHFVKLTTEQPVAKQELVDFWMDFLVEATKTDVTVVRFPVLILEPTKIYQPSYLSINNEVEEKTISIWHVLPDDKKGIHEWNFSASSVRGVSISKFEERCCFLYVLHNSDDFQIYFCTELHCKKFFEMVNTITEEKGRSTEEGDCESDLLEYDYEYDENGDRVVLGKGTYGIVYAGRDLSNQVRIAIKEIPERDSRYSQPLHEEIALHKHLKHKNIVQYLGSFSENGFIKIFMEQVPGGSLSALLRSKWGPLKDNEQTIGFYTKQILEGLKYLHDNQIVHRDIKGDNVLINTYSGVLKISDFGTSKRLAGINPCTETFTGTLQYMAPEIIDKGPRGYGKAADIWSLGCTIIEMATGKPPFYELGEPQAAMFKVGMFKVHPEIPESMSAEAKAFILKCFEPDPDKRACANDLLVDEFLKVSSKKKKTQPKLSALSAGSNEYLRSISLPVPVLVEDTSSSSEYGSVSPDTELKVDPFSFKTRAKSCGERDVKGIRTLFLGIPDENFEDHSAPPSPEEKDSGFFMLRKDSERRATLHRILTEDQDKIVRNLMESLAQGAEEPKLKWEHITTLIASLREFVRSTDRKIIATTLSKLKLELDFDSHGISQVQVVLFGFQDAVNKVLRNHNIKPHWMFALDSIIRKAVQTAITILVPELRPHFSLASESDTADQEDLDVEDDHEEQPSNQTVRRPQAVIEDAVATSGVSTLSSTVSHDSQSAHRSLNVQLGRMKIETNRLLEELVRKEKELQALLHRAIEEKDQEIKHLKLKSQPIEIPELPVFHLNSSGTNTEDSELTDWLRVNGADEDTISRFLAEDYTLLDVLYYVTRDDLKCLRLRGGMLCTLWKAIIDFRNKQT

Sequence of recombinant human ASK1 (hASK1) catalytic domain (Q99683 680-938): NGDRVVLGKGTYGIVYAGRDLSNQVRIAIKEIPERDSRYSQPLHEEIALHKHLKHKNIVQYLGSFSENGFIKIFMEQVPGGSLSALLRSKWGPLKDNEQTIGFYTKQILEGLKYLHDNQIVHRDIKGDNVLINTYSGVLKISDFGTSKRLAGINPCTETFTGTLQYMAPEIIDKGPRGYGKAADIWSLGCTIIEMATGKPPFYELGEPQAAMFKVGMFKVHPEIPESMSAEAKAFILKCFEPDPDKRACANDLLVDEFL

As to `Cc1cc2c(cc1-c1cnn(C(C)C)c1)C(=O)N(c1cccc(-c3nncn3C(C)C)n1)CC2` [Example 1, 7-(1-Isopropylpyrazol-4-yl)-2-[6-(4-isopropyl-1,2,4-triazol-3-yl)-2-pyridyl]-6-methyl-3,4-dihydroisoquinolin-1-one], in experiment [1], the IC50 turned out to be 3.6 ± 0.8 nM and the “Efficacy (%)” value is 101%. At human ASK1, the IC50 amounted to 38.6 ± 2.4 nM and the “Efficacy (%)” value stood at 107%.
In the same order, the values of `Cc1cc2c(cc1-n1cnc(C3CC3)c1)C(=O)N(c1cccc(-c3nncn3C(C)C)n1)CC2` [Example 2, 7-(4-Cyclopropylimidazol-1-yl)-2-[6-(4-isopropyl-1,2,4-triazol-3-yl)-2-pyridyl]-6-methyl-3,4-dihydroisoquinolin-1-one] are 1.8 ± 0.4 nM, 100.5%, 13.1 ± 2.8 nM and 103%.
On the same counts, the results for `CC(C)n1cnnc1-c1cccc(N2CCc3ncc(-n4cnc(C5CC5)c4)cc3C2=O)n1.Cl` [Example 3, 3-(4-Cyclopropylimidazol-1-yl)-6-[6-(4-isopropyl-1,2,4-triazol-3-yl)-2-pyridyl]-7,8-dihydro-1,6-naphthyridin-5-one; hydrochloride] are 3.8 ± 0.9 nM, 100.1%, 31.5 ± 6.6 nM and 107%.
Regarding `CC(C)n1cc(-c2cnc3c(c2)C(=O)N(c2cccc(-c4nncn4C(C)C)n2)CC3)cn1` [Example 4, 3-(1-Isopropylpyrazol-4-yl)-6-[6-(4-isopropyl-1,2,4-triazol-3-yl)-2-pyridyl]-7,8-dihydro-1,6-naphthyridin-5-one], in experiment [1], the IC50 is 4.2 ± 0.8 nM and the “Efficacy (%)” value came to 99.8%. In addition, on human ASK1, the IC50 was 41.9 ± 0.5 nM and the “Efficacy (%)” value turned out to be 105%.

As a reminder, the IC50 is the concentration that gives 50% inhibition.
